Measurements: patent US11524966B1 (Valo Early Discovery, Inc., priority 2017, dated 2022)

What follows are molecules tested against T1, USP25 (USP25-His6, Boston Biochem E-546) (Homo sapiens, UniProt Q9UHP3) (assay: Ubiquitin-Rhodamine 110 Assay for USP25 Activity, Example A-2). Conditions: Ubiquitin-Rhodamine 110 assay, Example A-2; read-out: USP25 A-2 IC50 range.
T1 construct: His6; purchased Boston Biochem E-546
T1 sequence (Q9UHP3 1-1055): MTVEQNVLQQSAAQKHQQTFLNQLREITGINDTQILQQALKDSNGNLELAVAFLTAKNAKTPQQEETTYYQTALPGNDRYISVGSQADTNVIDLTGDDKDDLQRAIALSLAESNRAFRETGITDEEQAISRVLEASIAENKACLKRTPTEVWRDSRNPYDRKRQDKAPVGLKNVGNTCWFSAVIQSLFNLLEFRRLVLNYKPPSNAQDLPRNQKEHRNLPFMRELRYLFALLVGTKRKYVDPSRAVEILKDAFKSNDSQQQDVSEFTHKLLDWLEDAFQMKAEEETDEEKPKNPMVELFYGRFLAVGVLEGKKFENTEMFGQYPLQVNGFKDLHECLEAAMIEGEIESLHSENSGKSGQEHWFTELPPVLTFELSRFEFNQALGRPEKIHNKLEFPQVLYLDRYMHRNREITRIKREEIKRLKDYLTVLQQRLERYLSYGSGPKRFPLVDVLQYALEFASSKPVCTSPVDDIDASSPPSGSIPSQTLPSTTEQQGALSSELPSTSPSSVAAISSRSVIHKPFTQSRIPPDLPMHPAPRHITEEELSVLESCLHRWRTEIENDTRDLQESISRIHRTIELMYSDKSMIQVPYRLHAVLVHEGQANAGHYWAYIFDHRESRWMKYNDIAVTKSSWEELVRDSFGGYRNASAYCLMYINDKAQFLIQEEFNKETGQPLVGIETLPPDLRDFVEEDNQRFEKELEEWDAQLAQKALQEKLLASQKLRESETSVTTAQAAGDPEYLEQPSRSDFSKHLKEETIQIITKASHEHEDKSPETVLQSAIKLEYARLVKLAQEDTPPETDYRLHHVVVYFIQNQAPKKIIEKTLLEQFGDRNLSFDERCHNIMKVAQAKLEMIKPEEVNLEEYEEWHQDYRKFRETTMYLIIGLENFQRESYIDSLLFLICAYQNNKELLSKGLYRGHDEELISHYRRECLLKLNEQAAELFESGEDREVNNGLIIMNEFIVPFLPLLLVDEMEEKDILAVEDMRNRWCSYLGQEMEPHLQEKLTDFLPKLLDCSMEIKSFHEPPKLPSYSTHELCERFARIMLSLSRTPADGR
Assay type: biochemical
Summary of the method: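 Read-out: Rh110 fluorescence (ex 485, em 535 nm) after 45 min RT turnover of 25 nM Ub-Rh110 by 75 pM USP25-His6, quenched with 10 mM citric acid. Compounds at 25 μM–1.3 nM, preincubated 30 min with enzyme. IC50 from 4-parameter logistic fit.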

`Cc1ccc2c(N)c(C(=O)N[C@H]3COc4cc(C5(F)CCNCC5)ccc4C3)sc2n1` [Example 8-1, (R)-3-Amino-N-(7-(4-fluoropiperidin-4-yl)chroman-3-yl)-6-methylthieno[2,3-b]pyridine-2-carboxamide] and `Cc1ccc2c(N)c(C(=O)N[C@H]3COc4cc(N5CCNCC5)cc(F)c4C3)sc2n1` [Example 10-1, (R)-3-amino-N-(5-fluoro-7-(piperazin-1-yl)chroman-3-yl)-6-methylthieno[2,3-b]pyridine-2-carboxamide] fall in the same range of IC50: 50 to 200 nM for the first, 50 to 200 nM for the second.

First: CO[C@@H]1CN(c2cc(F)c3c(c2)OC[C@H](NC(=O)c2sc4nc(C)ccc4c2N)C3)C[C@H]1N [Example 10-2, 3-amino-N-((R)-7-((3R,4R)-3-amino-4-methoxypyrrolidin-1-yl)-5-fluorochroman-3-yl)-6-methylthieno[2,3-b]pyridine-2-carboxamide]
Second: Cc1ccc2c(N)c(C(=O)N[C@H]3COc4cc(N5CC6CNCC(C5)O6)cc(F)c4C3)sc2n1 [Example 10-6, N-((3R)-7-(9-oxa-3,7-diazabicyclo[3.3.1]nonan-3-yl)-5-fluorochroman-3-yl)-3-amino-6-methylthieno[2,3-b]pyridine-2-carboxamide]
The IC50 of the first is higher: 200 to 2000 nM for the first, 50 to 200 nM for the second. The second is the more potent here.

Compared with `[2H]C1([2H])NC([2H])([2H])C([2H])([2H])N(c2cc(F)c3c(c2)OC[C@H](NC(=O)c2sc4nc(C)ccc4c2N)C3)C1([2H])[2H]` [Example 10-4, (R)-3-amino-N-(5-fluoro-7-(piperazin-l-yl-2,2,3,3,5,5,6,6-d8)chroman-3-yl)-6-methylthieno[2,3-b]pyridine-2-carboxamide], `Cc1ccc2c(N)c(C(=O)N[C@@H]3COc4cc(N5CCNCC5)cc(F)c4C3)sc2n1` [Example 10-5, (S)-3-amino-N-(5-fluoro-7-(piperazin-1-yl)chroman-3-yl)-6-methylthieno[2,3-b]pyridine-2-carboxamide] is higher in IC50: 50 to 200 nM for the first, > 2000 nM for the second. The first is the more potent here.

`Cc1cc(C)c2c(N)c(C(=O)N[C@H]3COc4cc(N5CC6CC(C5)N6)cc(F)c4C3)sc2n1` [Example 10-7, N-((3R)-7-(3,6-diazabicyclo[3.1.1]heptan-3-yl)-5-fluorochroman-3-yl)-3-amino-4,6-dimethylthieno[2,3-b]pyridine-2-carboxamide] and `Cc1cnc2c(N)c(C(=O)N[C@H]3COc4cc(N5CC6CC(C5)N6)cc(F)c4C3)sc2n1` [Example 10-8, N-((3R)-7-(3,6-diazabicyclo[3.1.1]heptan-3-yl)-5-fluorochroman-3-yl)-7-amino-3-methylthieno[2,3-b]pyrazine-6-carboxamide] fall in the same range of IC50: 50 to 200 nM for the first, 50 to 200 nM for the second.

`Cc1cc(C)c2c(N)c(C(=O)N[C@H]3COc4cc(N5CCNCC5)cc(F)c4C3)sc2n1` [Example 10-9, (R)-3-amino-N-(5-fluoro-7-(piperazin-1-yl)chroman-3-yl)-4,6-dimethylthieno[2,3-b]pyridine-2-carboxamide] and `Cc1cnc2c(N)c(C(=O)N[C@H]3COc4cc(N5CCNCC5)cc(F)c4C3)sc2n1` [Example 10-10, (R)-7-amino-N-(5-fluoro-7-(piperazin-1-yl)chroman-3-yl)-3-methylthieno[2,3-b]pyrazine-6-carboxamide] fall in the same range of IC50: 50 to 200 nM for the first, 50 to 200 nM for the second.

Same assay, conditions: Ubiquitin-Rhodamine 110 assay, format Example A-2; read-out: USP25 A-2 IC50 range

First: Cc1ccc2c(N)c(C(=O)N[C@H]3CCc4c(F)c(N5CC6CNCC(C5)O6)cc(F)c4C3)sc2n1 (single isomer, unassigned) [Example 22-3]
Second: Cc1ccc2c(N)c(C(=O)N[C@@H]3CCc4c(F)c(N5CC6CNCC(C5)O6)cc(F)c4C3)sc2n1 (single isomer, unassigned) [Example 22-4]
The IC50 of the first is higher: > 2000 nM for the first, 1 to 50 nM for the second. The second is the more potent here.

`Cc1ccc2c(N)c(C(=O)N[C@@H]3CCc4c(F)c(N5CC6CCC(C5)N6)cc(F)c4C3)sc2n1` (single isomer, unassigned) [Example 22-6] and `CO[C@H]1CN(c2ccc3c(n2)CC[C@H](NC(=O)c2sc4nc(C)cnc4c2N)C3)C[C@@H]1N` (single isomer, unassigned) [Example 23-1] cannot be ordered by IC50: > 2000 nM for the first, > 2000 nM for the second.

In the case of `CO[C@H]1CN(c2ccc3c(n2)CC[C@@H](NC(=O)c2sc4nc(C)cnc4c2N)C3)C[C@@H]1N` (single isomer, unassigned) [Example 23-2], the IC50 is reported as > 2000 nM.
